Experimental findings from patent EP4745118A1, “HYDROXAMIC ACID COMPOUND OR PHARMACEUTICALLY ACCEPTABLE SALT THEREOF, AND USE THEREOF AND PREPARATION METHOD THEREFOR” (priority 2023, dated 2025) are described below.

Each structure is given as a SMILES string. In brackets after ≈: the same amount, converted by molar mass.

The test system of the first assay is Shigella flexneri. Nature of the assay: In vitro antibacterial activity, agar dilution method (MIC). Format: cell-based. The note with it: ATCC12022, Shigella flexneri ATCC 12022, 35°C, 18 hours, read-out: MIC. Here is the method: According to the relevant operating procedures of the Clinical Laboratory Standards Institute (CLSI) in the United States, an antimicrobial susceptibility testing was conducted using the agar dilution method. A 1920 µg/mL stock solution was serially diluted twofold with sterile water to obtain dilutions of 960, 480, 240, 120, 60, 30, 15, 7.5, 3.75, 1.88, 0.94, 0.47 µg/mL, and 1 mL of the dilution was taken respectively from the dilutions with different concentrations and added to a Petri dish, to which 14 mL of melted MH agar medium was added and mixed thoroughly, and the final concentration of the drug in the petri dish is 128, 64, 32, 16, 8, 4, 2, 1, 0.5, 0.25, 0.12, 0.06, and 0.03 µ g/mL, respectively. The agar was allowed to solidify and set aside for later use.
(§1) The test bacteria were propagated in broth and adjusted to a turbidity of 0.5 McFarland (approximately 1-2 × 10^8 CFU/mL) using a turbidimeter before inoculation. The 0.5 McFarland bacterial solution was then diluted 10-fold in broth (approximately 1-2 × 10^7 CFU/mL). A multipoint inoculator was used to inoculate the above bacterial solution onto a series of plates containing different concentrations of drugs (with an inoculation amount of approximately 10^4 CFU per inoculation site). After incubation at a constant temperature of 35°C for 18 hours, results were observed. The minimum concentration of drugs contained in sterile growth plates was determined as the Minimal Inhibitory Concentration (MIC).
As to `COCC1CC1C#CC#Cc1ccc(C(=O)N[C@H](C(=O)NO)C(C)(C)N)cc1` (stereo partly shown) [Formula I], the MIC was 0.25 µg/mL.
For `C[C@@H](O)[C@H]1C(=O)N2C(C(=O)O)=C(SCCN=CN)C[C@H]12` [Imipenem], the MIC was determined as 0.12 µg/mL (≈ 0.401 µM).

In a further assay the test system is Klebsiella pneumoniae. The assay is described as above. As to conditions: Klebsiella pneumoniae, 18 h, Klebsiella pneumoniae 09-20 (mcr-1); agar dilution, 35°C, 18 hours; read-out: MIC. Type of assay: cell-based. Here is the method: (§2) According to the relevant operating procedures of the Clinical Laboratory Standards Institute (CLSI) in the United States, an antimicrobial susceptibility testing was conducted using the agar dilution method. […]. The agar was allowed to solidify and set aside for later use.
as §1
A general note: Agar dilution tests growth on a series of plates holding different concentrations.
Take `COCC1CC1C#CC#Cc1ccc(C(=O)N[C@H](C(=O)NO)C(C)(C)N)cc1` (stereo partly shown) [Formula I]: the minimal inhibitory concentration (MIC) came to 2 µg/mL.
On the same count and under the same terms, the value for `C[C@@H](O)[C@H]1C(=O)N2C(C(=O)O)=C(SCCN=CN)C[C@H]12` [Imipenem] was 0.12 µg/mL (≈ 0.401 µM).

Still in this assay, the particulars now being: Klebsiella pneumoniae, 18 h, Klebsiella pneumoniae 17-R27 (CRE); agar dilution, 35°C, 18 hours; read-out: MIC.
In the case of `COCC1CC1C#CC#Cc1ccc(C(=O)N[C@H](C(=O)NO)C(C)(C)N)cc1` (stereo partly shown) [Formula I], the MIC came to 2 µg/mL.
In the case of `C[C@@H](O)[C@H]1C(=O)N2C(C(=O)O)=C(SCCN=CN)C[C@H]12` [Imipenem], the MIC worked out at 0.12 µg/mL (≈ 0.401 µM).

Still in this assay, the particulars now being: Klebsiella pneumoniae, 18 h, Klebsiella pneumoniae 18-8 (ESBLs-producing); agar dilution, 35°C, 18 hours; read-out: MIC.
Take `C[C@@H](O)[C@H]1C(=O)N2C(C(=O)O)=C(SCCN=CN)C[C@H]12` [Imipenem]: the MIC worked out at 0.12 µg/mL (≈ 0.401 µM).

The same assay, now with this note: Klebsiella pneumoniae, ATCC700603, 18 h, Klebsiella pneumoniae ATCC 700603 (ESBLs-producing); agar dilution, 35°C, 18 hours; read-out: MIC.
As to `COCC1CC1C#CC#Cc1ccc(C(=O)N[C@H](C(=O)NO)C(C)(C)N)cc1` (stereo partly shown) [Formula I], the minimal inhibitory concentration (MIC) was 4 µg/mL.
For `C[C@@H](O)[C@H]1C(=O)N2C(C(=O)O)=C(SCCN=CN)C[C@H]12` [Imipenem], the minimal inhibitory concentration (MIC) was determined as 0.25 µg/mL (≈ 0.835 µM).

Staying with this assay, now noted: Klebsiella pneumoniae, ATCCBAA2146, 18 h, Klebsiella pneumoniae ATCC BAA-2146 (CRE, NDM-1-producing); agar dilution, 35°C, 18 hours; read-out: MIC.
Regarding `COCC1CC1C#CC#Cc1ccc(C(=O)N[C@H](C(=O)NO)C(C)(C)N)cc1` (stereo partly shown) [Formula I], the MIC came to 8 µg/mL.
Same read-out and setting: for `C[C@@H](O)[C@H]1C(=O)N2C(C(=O)O)=C(SCCN=CN)C[C@H]12` [Imipenem] the value was 32 µg/mL (≈ 107 µM).

The subject of the next assay is Enterobacter aerogenes. The assay is described as above. Type of assay: cell-based. The note with it: Klebsiella aerogenes, ATCC13048; Enterobacter aerogenes ATCC 13048; agar dilution, 35°C, 18 hours; read-out: MIC. Here is the method:
as §2, §1
In the case of `COCC1CC1C#CC#Cc1ccc(C(=O)N[C@H](C(=O)NO)C(C)(C)N)cc1` (stereo partly shown) [Formula I], the MIC is 2 µg/mL.
On the same count and under the same terms, the value for `C[C@@H](O)[C@H]1C(=O)N2C(C(=O)O)=C(SCCN=CN)C[C@H]12` [Imipenem] was 0.25 µg/mL (≈ 0.835 µM).

The next assay has as its system Proteus vulgaris. The assay is described as above. Type of assay: cell-based. The note with it: ATCC29905; Proteus vulgaris ATCC 29905; agar dilution, 35°C, 18 hours; read-out: MIC. As to the method:
as §2, §1
For `COCC1CC1C#CC#Cc1ccc(C(=O)N[C@H](C(=O)NO)C(C)(C)N)cc1` (stereo partly shown) [Formula I], the MIC worked out at 0.5 µg/mL.
On to `C[C@@H](O)[C@H]1C(=O)N2C(C(=O)O)=C(SCCN=CN)C[C@H]12` [Imipenem], for which the MIC stood at 0.25 µg/mL (≈ 0.835 µM).

The next assay relates to Escherichia coli. The assay is described as above. The note with it: Escherichia coli, 18 h, Escherichia coli 13-43 (mcr-1); agar dilution, 35°C, 18 hours; read-out: MIC. Format: cell-based. Here is the method:
as §2, §1
Regarding `COCC1CC1C#CC#Cc1ccc(C(=O)N[C@H](C(=O)NO)C(C)(C)N)cc1` (stereo partly shown) [Formula I], the MIC amounted to 0.5 µg/mL.
Same read-out and setting: for `C[C@@H](O)[C@H]1C(=O)N2C(C(=O)O)=C(SCCN=CN)C[C@H]12` [Imipenem] the value was 0.12 µg/mL (≈ 0.401 µM).

Staying with this assay, now noted: Escherichia coli, 18 h, Escherichia coli 17-R28 (CRE, NDM-1-producing); agar dilution, 35°C, 18 hours; read-out: MIC.
Take `COCC1CC1C#CC#Cc1ccc(C(=O)N[C@H](C(=O)NO)C(C)(C)N)cc1` (stereo partly shown) [Formula I]: the minimal inhibitory concentration (MIC) is 0.5 µg/mL.
Consider `C[C@@H](O)[C@H]1C(=O)N2C(C(=O)O)=C(SCCN=CN)C[C@H]12` [Imipenem], for which the minimum inhibitory concentration (MIC) is greater than 128 µg/mL.

Staying with this assay, now noted: Escherichia coli, ATCC2469, 18 h, Escherichia coli ATCC 2469 (CRE, NDM-1-producing); agar dilution, 35°C, 18 hours; read-out: MIC.
For `COCC1CC1C#CC#Cc1ccc(C(=O)N[C@H](C(=O)NO)C(C)(C)N)cc1` (stereo partly shown) [Formula I], the MIC is 0.5 µg/mL.
Regarding `C[C@@H](O)[C@H]1C(=O)N2C(C(=O)O)=C(SCCN=CN)C[C@H]12` [Imipenem], the MIC was determined as 8 µg/mL (≈ 26.7 µM).

Staying with this assay, now noted: Escherichia coli, ATCC35218, 18 h, Escherichia coli ATCC 35218 (ESBLs-producing); agar dilution, 35°C, 18 hours; read-out: MIC.
`COCC1CC1C#CC#Cc1ccc(C(=O)N[C@H](C(=O)NO)C(C)(C)N)cc1` (stereo partly shown) [Formula I]: the MIC is 0.5 µg/mL.
Same read-out and setting: the value for `C[C@@H](O)[C@H]1C(=O)N2C(C(=O)O)=C(SCCN=CN)C[C@H]12` [Imipenem] was 0.12 µg/mL (≈ 0.401 µM).

A further assay concerns Pantoea agglomerans. Described as above. Format: cell-based. The note with it: ATCC27993; Pantoea agglomerans ATCC 27993; agar dilution, 35°C, 18 hours; read-out: MIC. Here is the method:
as §2, §1
For `COCC1CC1C#CC#Cc1ccc(C(=O)N[C@H](C(=O)NO)C(C)(C)N)cc1` (stereo partly shown) [Formula I], the MIC worked out at 4 µg/mL.
`C[C@@H](O)[C@H]1C(=O)N2C(C(=O)O)=C(SCCN=CN)C[C@H]12` [Imipenem]: the MIC worked out at 0.12 µg/mL (≈ 0.401 µM).

The next assay deals with Proteus mirabilis. The description is as above. Type of assay: cell-based. As to conditions: ATCC49565; Proteus mirabilis ATCC 49565; agar dilution, 35°C, 18 hours; read-out: MIC. Here is the method:
as §2, §1
As for `COCC1CC1C#CC#Cc1ccc(C(=O)N[C@H](C(=O)NO)C(C)(C)N)cc1` (stereo partly shown) [Formula I], the MIC turned out to be 2 µg/mL.
On to `C[C@@H](O)[C@H]1C(=O)N2C(C(=O)O)=C(SCCN=CN)C[C@H]12` [Imipenem], for which the MIC came out at 1 µg/mL (≈ 3.34 µM).

Another assay has as its system Citrobacter freundii. Described as above. Format: cell-based. The note with it: ATCC43864; Citrobacter freundii ATCC 43864; agar dilution, 35°C, 18 hours; read-out: MIC. As to the method: as §2, §1
Regarding `COCC1CC1C#CC#Cc1ccc(C(=O)N[C@H](C(=O)NO)C(C)(C)N)cc1` (stereo partly shown) [Formula I], the MIC was determined as 0.5 µg/mL.
On to `C[C@@H](O)[C@H]1C(=O)N2C(C(=O)O)=C(SCCN=CN)C[C@H]12` [Imipenem], for which the MIC came to 0.25 µg/mL (≈ 0.835 µM).

The subject of the next assay is Serratia marcescens. Described as above. Type of assay: cell-based. As to conditions: ATCC21074; Serratia marcescens ATCC 21074; agar dilution, 35°C, 18 hours; read-out: MIC. As to the method:
as §2, §1
For `COCC1CC1C#CC#Cc1ccc(C(=O)N[C@H](C(=O)NO)C(C)(C)N)cc1` (stereo partly shown) [Formula I], the MIC was 0.5 µg/mL.
As for `C[C@@H](O)[C@H]1C(=O)N2C(C(=O)O)=C(SCCN=CN)C[C@H]12` [Imipenem], the MIC is 0.5 µg/mL (≈ 1.67 µM).

Another assay deals with Pseudomonas aeruginosa. The assay is described as above. As to conditions: Pseudomonas aeruginosa PAO1; agar dilution, 35°C, 18 hours; read-out: MIC. Type of assay: cell-based. As to the method: as §2, §1
Consider `COCC1CC1C#CC#Cc1ccc(C(=O)N[C@H](C(=O)NO)C(C)(C)N)cc1` (stereo partly shown) [Formula I], for which the minimal inhibitory concentration (MIC) worked out at 2 µg/mL.

The next assay deals with Enterobacter cloacae. Described as above. Format: cell-based. The note with it: Enterobacter cloacae CDC1000654 (NDM-1-producing); agar dilution, 35°C, 18 hours; read-out: MIC. As to the method:
According to the relevant operating procedures of the Clinical Laboratory Standards Institute (CLSI) in the United States, an antimicrobial susceptibility testing was conducted using the agar dilution method. […] The agar was allowed to solidify and set aside for later use.
as §1
Take `COCC1CC1C#CC#Cc1ccc(C(=O)N[C@H](C(=O)NO)C(C)(C)N)cc1` (stereo partly shown) [Formula I]: the MIC stood at 4 µg/mL.
On the same count and under the same terms, for `C[C@@H](O)[C@H]1C(=O)N2C(C(=O)O)=C(SCCN=CN)C[C@H]12` [Imipenem] the value was 2 µg/mL (≈ 6.68 µM).

For orientation: MIC means the smallest concentration in the dilution series that meets the test's criterion for growth inhibition.
